Measurements published in patent US7763617B2, “Pyrazolopyridine-4-yl pyridazinone derivatives and addition salts thereof, and PDE inhibitors comprising the same derivatives or salts as active ingredient” (Kyorin Pharmaceutical Co., Ltd., priority 2005, dated 2010).
Read-outs that look alike come from different tables or passages of the source.

How the values were obtained:
[1] = target: T1, PDE3A catalytic domain (PDE3Acat) (Homo sapiens, UniProt Q14432); test: Inhibition of phosphodiesterase activity, [3H]-cAMP hydrolysis, recombinant PDE3Acat; type: biochemical; conditions: cAMP 2 μmol/L
T1 construct: cDNA fragments of PDE3A catalytic domain (indicated as “cat,” hereinafter); made in house; host or cells: Sf9 insect cells (baculovirus, Bac-to-Bac)
Experimental: (§1) RT-PCR was performed to isolate cDNA fragments of PDE3A catalytic domain (indicated as “cat,” hereinafter), PDE4Bcat, PDE5Acat and PDE10A1 from human RNA. Using Gateway system (Invitrogen) and Bac-to-Bac (registered trademark) Baculovirus Expression system (Invitrogen), the isolated cDNA fragments were transfected into Sf9 insect cells for expression of the PDE proteins. The recombinant PDE3Acat, PDE4Bcat, PDE5Acat and PDE10A1 proteins were isolated from culture supernatant or cell extracts of Sf9 cells expressed high levels of these proteins by ion-exchange chromatography and used for the following experiments.
(§2) 4 mmol/L solution of each test compound was serially diluted 4-fold with 15% DMSO solution to prepare the solutions with concentrations of 15 nmol/L to 4 mmol/L (final concentrations=1.5 nmol/L-400 μmol/L). 10 μL of each test compound solution was added to each well of 96 plate with 10 μL of [^3H]-cAMP or [^3H]-cGMP solution, diluted with a buffer (40 mmol/L Tris-HCl (pH 7.4), 10 mmol/L MgCl2) to the concentration shown in Table 20 and 40 μL of each of the human recombinant PDE proteins in units shown in Table 20. The plate was incubated at 30° C. for 20 min, and then at 65° C. for 2 min. Subsequently, 25 μL of 1 mg/mL 5′-nucleotidase (Crotalus atrox venom, Sigma) was added to each well and the plate was incubated at 30° C. for 10 min. 200 μL of Dowex solution (300 mg/mL Dowex 1×8-400 (Sigma Aldrich), 33% ethanol) was then added to each well and the plate was shaken at 4° C. for 20 min. Subsequently, 200 μL of MicroScint 20 (Packard) was added to each well and the radioactivity of each sample was measured by a scintillation counter (Topcount, Packard) IC50 was calculated by GraphPad Prism v3.03 (GraphPad Software).

[2] = target: T2, PDE4Bcat (Homo sapiens, UniProt Q07343); test: Inhibition of phosphodiesterase activity, [3H]-cAMP hydrolysis, recombinant PDE4Bcat; type: biochemical; conditions: cAMP 2 μmol/L, read-out: IC50(μmol/L) PDE4
T2 construct: catalytic domain (indicated as “cat,” hereinafter), PDE4Bcat; made in house; host or cells: Sf9 insect cells (baculovirus, Bac-to-Bac)
Experimental: as §1, §2

[3] = target: PDE5Acat (Homo sapiens, UniProt O76074); test: Inhibition of phosphodiesterase activity, [3H]-cGMP hydrolysis, recombinant PDE5Acat; type: biochemical; conditions: cGMP 2 μmol/L, read-out: IC50(μmol/L) PDE5
Experimental: as §1, §2

[4] = target: T3, PDE10A1 (Homo sapiens, UniProt Q9Y233); test: Inhibition of phosphodiesterase activity, [3H]-cAMP hydrolysis, recombinant PDE10A1; type: biochemical; conditions: human recombinant PDE10A1, cAMP 0.2 μmol/L; read-out: IC50(μmol/L) PDE10
T3 construct: made in house; host or cells: Sf9 insect cells (baculovirus, Bac-to-Bac)
Experimental: as §1, §2

[5] = system: isolated guinea pig tracheal smooth muscles; test: Relaxant effect on histamine-induced contraction of isolated guinea pig tracheal smooth muscles; conditions: Cavia porcellus; histamine 10^-5 mol/L contraction, relaxation as % of maximum response to papaverine 10^-4 mol/L; read-out: IC50(μmol/L), concentration required to 50% relaxation
Experimental: Guinea pigs were exsanguinated and the trachea was immediately isolated and cut into 2 to 3 cartilage ring segments to prepare tracheal ring preparations. The tracheal rings were suspended in 10 mL of Tyrode's solution bubbled with a gaseous mixture of 95% O2+5% CO2 at 37° C. The composition of the Tyrode's solution (mM) was as follows: NaCl 136.9, KCl 2.7, CaCl2 1.8, MgCl2 1.0, NaH2PO4 0.4, NaHCO3 11.9 and Gucose 5.6. The contractile response was measured by an isometric transducer (UM-203, KISHIMOTO) and recorded on a recorder ([…] SERVOCORDER SR6221). After about 1 hour incubation with 1.5 g of resting tention, histamine (10^−5 mol/L) was added to induce the contractile response. After confirming the response, the preparations were washed with Tyrode's solution (10 mL×3). Then indomethacin (10^−5 mol/L) was applied and the preparations were equilibrated for at least 30 min under 1.5 g tension. Subsequently, histamine (10^−5 mol/L) was applied. After the contraction reached a steady state, each compound was added in a cumulative manner (10^−8 mol/L-3×10^−5 mol/L). Each compound was prepared as a 10^−1 mol/L solution in DMSO, which was diluted with distilled water for use. After addition of test compounds, papaverine (10^−4 mol/L) was added to determine the maximum relaxation of the preparation. Relaxant response of test compounds were expressed as a percentage of the maximum response to papaverine. IC50 was defined as a concentration of the compound required to 50% relaxation. DMSO was used as a control.

[6] = system: histamine-induced bronchoconstriction; test: Histamine-induced bronchoconstriction in guinea pigs; type: in vivo, guinea pig; conditions: Cavia porcellus, iv, 0.5 min, 30 seconds after administration, histamine 12.5 μg/kg i.v.; for inhibition in vivo at 1 mg/kg: test compound 1 mg/kg i.v.
Experimental: Guinea pigs were anesthetized with pentobarbital (30 mg/kg, i.p.). A cannula for IV administeration, a cannula for collecting blood and measurement of blood pressure and a trachea cannula were inserted into the left exterior jugular vein, right interior carotid artery and trachea, respectively. The animals were placed under artificial respiration at 60 times/min and 10 mL/kg/stroke. The airflow through the branch of the tracheal cannula was measured by a bronchospasm transducer (Ugo-Basile) and recorded on a computer via Power Lab (ADInstruments Japan). The animals were immobilized with gallamine (10 mg/kg, i.v.), then administered histamine at 10-minute intervals (12.5 μg/kg, i.v.). […] To examine the inhibitory activity of test compound, the histamine-induced bronchoconstriction was measured after 30 seconds of drug administration. The bronchoconstriction was recorded as the change of the airflow: The results were shown by percentages of the maximum histamine-induced bronchoconstriction. Each test compound was prepared as a 10 mg/mL solution in DMSO. Gallamine was prepared as a 10 mg/mL solution in physiological saline. Histamine was prepared as a 1 mg/mL solution in physiological saline, which was diluted with physiological saline to 62.5 μg/mL for use.

[7] = human recombinant PDE3Acat, read-out: IC50(μmol/L) PDE3

T2 sequence (Q07343 330-659 limits assumed): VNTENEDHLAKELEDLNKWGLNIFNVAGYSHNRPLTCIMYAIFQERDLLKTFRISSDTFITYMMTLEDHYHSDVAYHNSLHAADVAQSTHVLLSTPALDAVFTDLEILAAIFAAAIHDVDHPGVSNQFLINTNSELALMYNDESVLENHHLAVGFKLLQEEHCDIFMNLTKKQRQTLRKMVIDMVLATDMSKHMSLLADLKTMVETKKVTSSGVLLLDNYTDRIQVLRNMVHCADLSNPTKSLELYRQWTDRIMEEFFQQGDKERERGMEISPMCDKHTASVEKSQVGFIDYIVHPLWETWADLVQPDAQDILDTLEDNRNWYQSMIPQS
T3 sequence (Q9Y233 1-779 isoform Q9Y233-1): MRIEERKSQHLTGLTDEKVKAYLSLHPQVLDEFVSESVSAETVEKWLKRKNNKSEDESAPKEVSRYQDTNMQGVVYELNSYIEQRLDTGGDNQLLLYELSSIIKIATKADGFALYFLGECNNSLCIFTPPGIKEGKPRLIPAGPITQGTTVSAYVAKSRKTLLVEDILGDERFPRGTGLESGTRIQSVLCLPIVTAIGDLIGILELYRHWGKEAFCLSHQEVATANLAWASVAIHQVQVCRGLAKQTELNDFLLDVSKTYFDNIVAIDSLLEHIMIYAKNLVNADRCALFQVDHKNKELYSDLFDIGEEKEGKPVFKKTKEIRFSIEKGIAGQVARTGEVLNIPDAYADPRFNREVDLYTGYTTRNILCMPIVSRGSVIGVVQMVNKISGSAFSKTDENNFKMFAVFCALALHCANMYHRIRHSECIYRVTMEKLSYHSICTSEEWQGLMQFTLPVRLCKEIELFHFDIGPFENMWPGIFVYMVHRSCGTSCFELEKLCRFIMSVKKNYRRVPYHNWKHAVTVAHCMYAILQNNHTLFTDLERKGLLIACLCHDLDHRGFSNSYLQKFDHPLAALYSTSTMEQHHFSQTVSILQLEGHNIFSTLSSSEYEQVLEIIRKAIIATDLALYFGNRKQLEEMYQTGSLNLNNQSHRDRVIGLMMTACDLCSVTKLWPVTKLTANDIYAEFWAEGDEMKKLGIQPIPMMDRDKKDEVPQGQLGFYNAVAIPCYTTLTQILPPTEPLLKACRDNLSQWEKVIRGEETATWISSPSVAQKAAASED
T1 sequence (Q14432 674-1093 limits assumed): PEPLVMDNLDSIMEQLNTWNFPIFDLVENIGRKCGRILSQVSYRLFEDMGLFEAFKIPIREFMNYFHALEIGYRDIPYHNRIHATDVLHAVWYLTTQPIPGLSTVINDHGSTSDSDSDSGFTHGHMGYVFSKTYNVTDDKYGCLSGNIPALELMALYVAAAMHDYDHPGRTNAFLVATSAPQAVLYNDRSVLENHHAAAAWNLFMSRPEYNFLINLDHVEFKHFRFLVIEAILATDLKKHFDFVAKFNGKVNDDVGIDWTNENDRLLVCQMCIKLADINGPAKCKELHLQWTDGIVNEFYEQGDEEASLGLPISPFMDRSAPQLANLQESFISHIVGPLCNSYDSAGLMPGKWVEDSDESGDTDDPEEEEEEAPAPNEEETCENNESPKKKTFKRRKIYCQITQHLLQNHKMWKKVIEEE

| Structure (SMILES) | IC50 [1, 7] | IC50 [2] | IC50 [3] | IC50 [4] | IC50 [5] | inhibition in vivo at 0.1 mg/kg ([6]; values in brackets: test compound 0.1 mg/kg, i.v.) | inhibition in vivo at 1 mg/kg [6] | melting point | IC50 ([1]; IC50(μmol/L) PDE3, human recombinant PDE3Acat) |
| --- | --- | --- | --- | --- | --- | --- | --- | --- | --- |
| COc1ccc(C2=NNC(=O)CC2C)c2cc(C(F)(F)F)nn12 (stereo not shown) [205(211), 6-(7-methoxy-2-trifluoromethyl-pyrazolo[1,5-a]pyridine-4-yl)-4,5-dihydro-5-methyl-3-(2H)-pyridazinone] | 1 to 10 µmol/L | < 1 µmol/L | > 10 µmol/L | 1 to 10 µmol/L | 0.3 µmol/L | ≥ 90% |  |  |  |
| CCc1cc2c(C3=NNC(=O)CC3C)cccn2n1 (stereo not shown) [Example 201] | 1 to 10 µmol/L | > 10 µmol/L | > 10 µmol/L | 1 to 10 µmol/L | 0.93 µmol/L |  | ≥ 90% | 231 to 233 °C |  |
| CCc1cc2c(C3=NNC(=O)CC3C)ccc(OC)n2n1 (stereo not shown) [Example 216] |  | 0.1 to 1 µmol/L | > 10 µmol/L | 1 to 10 µmol/L | 0.65 µmol/L |  | ≥ 90% |  | > 10 µmol/L |
| CCc1cc2c(-c3ccc(=O)[nH]n3)cccn2n1 [Example 304] | 1 to 10 µmol/L | > 10 µmol/L | > 10 µmol/L | > 10 µmol/L | 0.89 µmol/L |  | ≥ 90% |  |  |
| CCc1cc2c(-c3n[nH]c(=O)cc3C)cccn2n1 [Example 305] |  |  |  |  |  |  |  | 229 to 231 °C |  |
| CCc1cc2c(C3=NNC(=O)CC3C)cc(Cl)cn2n1 (stereo not shown) [Example 311, 6-(6-chloro-2-ethyl-pyrazolo[1,5-a]pyridine-4-yl)-5-methyl-4,5-dihydro-3-(2H)-pyridazinone] |  |  |  |  | 2 µmol/L |  |  | 172 to 174 °C |  |
